{
  "source": "ChEMBL document CHEMBL5390204",
  "about": "“Persephacin Is a Broad-Spectrum Antifungal Aureobasidin Metabolite That Overcomes Intrinsic Resistance in Aspergillus fumigatus” (J Nat Prod, 2023)",
  "type_in_all_cases": "functional",
  "key": {"[1]": {"system": "Kodamaea ohmeri", "test": "Antifungal activity against multidrug-resistant Kodamaea ohmeri 396 assessed as inhibition in fungal growth incubated for 48 hrs by microplate reader analysis"}, "[2]": {"system": "Aspergillus fumigatus", "test": "Antifungal activity against Aspergillus fumigatus ATCC MYA-3627 assessed as inhibition in fungal growth incubated for 48 hrs in presence of 10% serum by microplate reader analysis"}, "[3]": {"system": "Cryptococcus neoformans", "test": "Antifungal activity against Cryptococcus neoformans H99 assessed as reduction in fungal growth incubated for 48 hrs by microplate reader analysis"}, "[4]": {"system": "Candida parapsilosis", "test": "Antifungal activity against Candida parapsilosis 9 assessed as inhibition in fungal growth incubated for 48 hrs by microplate reader analysis", "conditions": "Lodderomyces parapsilosis"}, "[5]": {"system": "[Candida] auris", "test": "Antifungal activity against multidrug-resistant Candida auris 390 assessed as inhibition in fungal growth incubated for 48 hrs by microplate reader analysis", "conditions": "Candidozyma auris"}, "[6]": {"system": "Fusarium solani", "test": "Antifungal activity against Fusarium solani 243G2 assessed as reduction in fungal growth incubated for 48 hrs by microplate reader analysis"}, "[7]": {"system": "Candida albicans", "test": "Antifungal activity against Candida albicans 1 assessed as inhibition in fungal growth incubated for 48 hrs by microplate reader analysis"}, "[8]": {"system": "Nakaseomyces glabratus", "test": "Antifungal activity against Candida glabrata 2 assessed as inhibition in fungal growth incubated for 48 hrs by microplate reader analysis"}, "[9]": {"system": "Pichia kudriavzevii", "test": "Antifungal activity against Candida krusei ATCC 6258 (Y-7179) assessed as reduction in fungal growth incubated for 48 hrs by microplate reader analysis"}, "[10]": {"system": "Pichia kudriavzevii", "test": "Antifungal activity against Candida krusei 25 assessed as inhibition in fungal growth incubated for 48 hrs by microplate reader analysis"}, "[11]": {"system": "Candida albicans", "test": "Antifungal activity against Candida albicans 5 assessed as inhibition in fungal growth incubated for 48 hrs by microplate reader analysis"}, "[12]": {"system": "[Candida] haemuloni", "test": "Antifungal activity against multidrug-resistant Candida haemulonii 393 assessed as inhibition in fungal growth incubated for 48 hrs by microplate reader analysis", "conditions": "Candidozyma haemuli"}, "[13]": {"system": "Nakaseomyces glabratus", "test": "Antifungal activity against Candida glabrata 20 assessed as inhibition in fungal growth incubated for 48 hrs by microplate reader analysis"}, "[14]": {"system": "Nakaseomyces glabratus", "test": "Antifungal activity against Candida glabrata 22 assessed as inhibition in fungal growth incubated for 48 hrs by microplate reader analysis"}, "[15]": {"system": "Candida tropicalis", "test": "Antifungal activity against Candida tropicalis ATCC750 (Y-12699) assessed as reduction in fungal viability incubated for 48 hrs by microplate reader analysis"}, "[16]": {"system": "Candida parapsilosis", "test": "Antifungal activity against Candida parapsilosis 18 assessed as inhibition in fungal growth incubated for 48 hrs by microplate reader analysis", "conditions": "Lodderomyces parapsilosis"}, "[17]": {"system": "Candida parapsilosis", "test": "Antifungal activity against Candida parapsilosis ATCC 22019 (Y-12969) assessed as reduction in fungal viability incubated for 48 hrs by microplate reader analysis"}, "[18]": {"system": "Pichia kudriavzevii", "test": "Antifungal activity against multidrug-resistant Candida krusei 397 assessed as inhibition in fungal growth incubated for 48 hrs by microplate reader analysis"}, "[19]": {"system": "Cryptococcus neoformans", "test": "Antifungal activity against Cryptococcus neoformans H99 assessed as inhibition in fungal growth incubated for 48 hrs in presence of 0% serum by microplate reader analysis"}, "[20]": {"system": "Aspergillus terreus", "test": "Antifungal activity against Aspergillus terreus 191A6 assessed as reduction in fungal growth incubated for 48 hrs by microplate reader analysis"}, "[21]": {"system": "Candida albicans", "test": "Antifungal activity against Candida albicans ATCC 10231 assessed as reduction in fungal growth incubated for 48 hrs by microplate reader analysis"}, "[22]": {"system": "Candida duobushaemulonii", "test": "Antifungal activity against multidrug-resistant Candida duobushaemulonii 391 assessed as inhibition in fungal growth incubated for 48 hrs by microplate reader analysis", "conditions": "Candidozyma duobushaemuli"}, "[23]": {"system": "Pichia kudriavzevii", "test": "Antifungal activity against Candida krusei ATCC 6258 (Y-7179) assessed as reduction in fungal viability incubated for 48 hrs by microplate reader analysis"}, "[24]": {"system": "Candida tropicalis", "test": "Antifungal activity against Candida tropicalis 13 assessed as inhibition in fungal growth incubated for 48 hrs by microplate reader analysis"}, "[25]": {"system": "Nakaseomyces glabratus", "test": "Antifungal activity against Candida glabrata 4 assessed as inhibition in fungal growth incubated for 48 hrs by microplate reader analysis"}, "[26]": {"system": "Fusarium solani", "test": "Antifungal activity against Fusarium solani 243G2 assessed as reduction in fungal viability incubated for 48 hrs by microplate reader analysis"}, "[27]": {"system": "Candida albicans", "test": "Antifungal activity against Candida albicans 10 assessed as inhibition in fungal growth incubated for 48 hrs by microplate reader analysis"}, "[28]": {"system": "Aspergillus niger", "test": "Antifungal activity against Aspergillus niger FGSC A732 assessed as reduction in fungal growth incubated for 48 hrs by microplate reader analysis"}, "[29]": {"system": "Saccharomyces cerevisiae", "test": "Antifungal activity against multidrug-resistant Saccharomyces cerevisiae 400 assessed as inhibition in fungal growth incubated for 48 hrs by microplate reader analysis"}, "[30]": {"system": "Nakaseomyces glabratus", "test": "Antifungal activity against Candida glabrata 16 assessed as inhibition in fungal growth incubated for 48 hrs by microplate reader analysis"}, "[31]": {"system": "Candida albicans", "test": "Antifungal activity against Candida albicans SC5314 assessed as inhibition in fungal growth incubated for 48 hrs in presence of 10% serum by microplate reader analysis"}, "[32]": {"system": "[Candida] auris", "test": "Antifungal activity against multidrug-resistant Candida auris 381 assessed as inhibition in fungal growth incubated for 48 hrs in presence of 5% serum by microplate reader analysis", "conditions": "Candidozyma auris"}, "[33]": {"system": "[Candida] auris", "test": "Antifungal activity against multidrug-resistant Candida auris 389 assessed as inhibition in fungal growth incubated for 48 hrs by microplate reader analysis", "conditions": "Candidozyma auris"}, "[34]": {"system": "[Candida] auris", "test": "Antifungal activity against multidrug-resistant Candida auris 381 assessed as inhibition in fungal growth incubated for 48 hrs in presence of 10% serum by microplate reader analysis", "conditions": "Candidozyma auris"}, "[35]": {"system": "Candida albicans", "test": "Antifungal activity against Candida albicans 3 assessed as inhibition in fungal growth incubated for 48 hrs by microplate reader analysis"}, "[36]": {"system": "[Candida] auris", "test": "Antifungal activity against multidrug-resistant Candida auris 385 assessed as inhibition in fungal growth incubated for 48 hrs by microplate reader analysis", "conditions": "Candidozyma auris"}, "[37]": {"system": "Candida parapsilosis", "test": "Antifungal activity against Candida parapsilosis 7 assessed as inhibition in fungal growth incubated for 48 hrs by microplate reader analysis", "conditions": "Lodderomyces parapsilosis"}, "[38]": {"system": "[Candida] auris", "test": "Antifungal activity against multidrug-resistant Candida auris 384 assessed as inhibition in fungal growth incubated for 48 hrs by microplate reader analysis", "conditions": "Candidozyma auris"}, "[39]": {"system": "Aspergillus fumigatus", "test": "Antifungal activity against Aspergillus fumigatus ATCC MYA-3627 assessed as inhibition in fungal growth incubated for 48 hrs in presence of 0% serum by microplate reader analysis"}, "[40]": {"system": "[Candida] auris", "test": "Antifungal activity against multidrug-resistant Candida auris 381 assessed as inhibition in fungal growth incubated for 48 hrs in presence of 0% serum by microplate reader analysis", "conditions": "Candidozyma auris"}, "[41]": {"system": "Nakaseomyces glabratus", "test": "Antifungal activity against Candida glabrata 17 assessed as inhibition in fungal growth incubated for 48 hrs by microplate reader analysis"}, "[42]": {"system": "Candida parapsilosis", "test": "Antifungal activity against Candida parapsilosis 15 assessed as inhibition in fungal growth incubated for 48 hrs by microplate reader analysis", "conditions": "Lodderomyces parapsilosis"}, "[43]": {"system": "Clavispora lusitaniae", "test": "Antifungal activity against multidrug-resistant Candida lusitaniae 398 assessed as inhibition in fungal growth incubated for 48 hrs by microplate reader analysis"}, "[44]": {"system": "Aspergillus flavus", "test": "Antifungal activity against Aspergillus flavus NRRL485 assessed as reduction in fungal growth incubated for 48 hrs by microplate reader analysis"}},
  "data": [
    {"smiles": "CC[C@H](C)C[C@H](C)C[C@H](C)C[C@@H]1NC(=O)[C@H](C(C)C)N(C)C(=O)[C@@H]([C@H](C)CC)OC(=O)[C@H](C(C)(C)O)N(C)C(=O)[C@H](CC(C)C)NC(=O)[C@H](C(C)C)N(C)C(=O)[C@H]([C@H](C)CC)NC(=O)[C@@H]2CCCN2C(=O)CN(C)C1=O", "values": [
      {"measurement": "MIC80", "setting": "[1]", "result": 2.5, "unit": "µM"},
      {"measurement": "MIC80", "setting": "[2]", "result": 2.5, "unit": "µM"},
      {"measurement": "MFC", "setting": "[3]", "result": 2.5, "unit": "µM"},
      {"measurement": "MIC80", "setting": "[3]", "result": 0.6, "unit": "µM"},
      {"measurement": "MIC80", "setting": "[4]", "result": 2.5, "unit": "µM"},
      {"measurement": "MIC80", "setting": "[5]", "result": 2.5, "unit": "µM"},
      {"measurement": "MFC", "setting": "[6]", "result": 2.5, "unit": "µM"},
      {"measurement": "MIC80", "setting": "[6]", "result": 1.3, "unit": "µM"},
      {"measurement": "MIC80", "setting": "[7]", "result": 2.5, "unit": "µM"},
      {"measurement": "MIC80", "setting": "[8]", "result": 0.2, "unit": "µM"},
      {"measurement": "MFC", "setting": "[9]", "result": 2.5, "unit": "µM"},
      {"measurement": "MIC80", "setting": "[9]", "result": 1.3, "unit": "µM"},
      {"measurement": "MIC80", "setting": "[10]", "result": 1.3, "unit": "µM"},
      {"measurement": "MIC80", "setting": "[11]", "result": 1.3, "unit": "µM"},
      {"measurement": "MIC80", "setting": "[12]", "result": 0.3, "unit": "µM"},
      {"measurement": "MIC80", "setting": "[13]", "result": 0.3, "unit": "µM"},
      {"measurement": "MIC80", "setting": "[14]", "result": 0.6, "unit": "µM"},
      {"measurement": "MFC<=99.9", "setting": "[15]", "result": 2.5, "unit": "µM"},
      {"measurement": "MIC80", "setting": "[16]", "result": 1.3, "unit": "µM"},
      {"measurement": "MFC<=99.9", "setting": "[17]", "result": 2.5, "unit": "µM"},
      {"measurement": "MIC80", "setting": "[18]", "result": 2.5, "unit": "µM"},
      {"measurement": "MIC80", "setting": "[19]", "result": 0.6, "unit": "µM"},
      {"measurement": "MFC", "setting": "[20]", "result": "> 10", "unit": "µM"},
      {"measurement": "MIC80", "setting": "[20]", "result": 2.5, "unit": "µM"},
      {"measurement": "MFC", "setting": "[21]", "result": 1.3, "unit": "µM"},
      {"measurement": "MIC80", "setting": "[21]", "result": 0.6, "unit": "µM"},
      {"measurement": "MIC80", "setting": "[22]", "result": 2.5, "unit": "µM"},
      {"measurement": "MFC<=99.9", "setting": "[23]", "result": 2.5, "unit": "µM"},
      {"measurement": "MIC80", "setting": "[24]", "result": 0.6, "unit": "µM"},
      {"measurement": "MIC80", "setting": "[25]", "result": 1.3, "unit": "µM"},
      {"measurement": "MFC<=99.9", "setting": "[26]", "result": 2.5, "unit": "µM"},
      {"measurement": "MIC80", "setting": "[27]", "result": 2.5, "unit": "µM"},
      {"measurement": "MFC", "setting": "[28]", "result": "> 10", "unit": "µM"},
      {"measurement": "MIC80", "setting": "[28]", "result": 1.3, "unit": "µM"},
      {"measurement": "MIC80", "setting": "[29]", "result": 2.5, "unit": "µM"},
      {"measurement": "MIC80", "setting": "[30]", "result": 0.3, "unit": "µM"},
      {"measurement": "MIC80", "setting": "[31]", "result": 0.3, "unit": "µM"},
      {"measurement": "MIC80", "setting": "[32]", "result": 1.3, "unit": "µM"},
      {"measurement": "MIC80", "setting": "[33]", "result": 2.5, "unit": "µM"},
      {"measurement": "MIC80", "setting": "[34]", "result": 1.3, "unit": "µM"},
      {"measurement": "MIC80", "setting": "[35]", "result": 2.5, "unit": "µM"},
      {"measurement": "MIC80", "setting": "[36]", "result": 2.5, "unit": "µM"},
      {"measurement": "MIC80", "setting": "[37]", "result": 2.5, "unit": "µM"},
      {"measurement": "MIC80", "setting": "[38]", "result": 2.5, "unit": "µM"},
      {"measurement": "MIC80", "setting": "[39]", "result": 2.5, "unit": "µM"},
      {"measurement": "MIC80", "setting": "[40]", "result": 1.3, "unit": "µM"},
      {"measurement": "MIC80", "setting": "[41]", "result": 0.2, "unit": "µM"},
      {"measurement": "MIC80", "setting": "[42]", "result": 2.5, "unit": "µM"},
      {"measurement": "MIC80", "setting": "[43]", "result": 2.5, "unit": "µM"},
      {"measurement": "MFC", "setting": "[44]", "result": "> 10", "unit": "µM"},
      {"measurement": "MIC80", "setting": "[44]", "result": 1.3, "unit": "µM"}
    ]}
  ]
}
